Laboratory results published in US6300501A, “Histidine-(N-benzyl glycinamide) inhibitors of protein farnesyl transferase” (Warner-Lambert Company, priority 1998, dated 2001).
Where two headings read alike, the source gives them in different places.

Columns and labels:
[1] = tested on: ras farnesylation in ras-transformed cells; assay: Gel shift assay; format: cell-based; conditions: ras-transformed cells, 18-hour incubation; read-out: Gel Shift (μM) MED (minimal effective dose to observe inhibition of ras farnesylation)
Protocol: Twenty-four hours after planting 2×10^6 ras-transformed cells per treatment condition, the farnesylation inhibitor is added at varying concentrations. Following an 18-hour incubation period, cells are lysed in phosphate-buffered saline containing 1% Triton X-100, 0.5% sodium deoxycholate, and 0.1% SDS (sodium dodecyl sulfate), pH 7.4 in the presence of several protease inhibitors (PMSF (phenylmethylsulfonylfluoride), antipain, leupeptin, pepstatin A, and aprotinin all at 1 μg/mL). Ras protein is immunoprecipitated from the supernatants by the addition of 3 μg v-H-ras Ab-2 (Y13-259 antibody from Oncogene Science). After overnight immunoprecipitation, 30 μL of a 50% protein G-Sepharose slurry (Pharmacia) is added followed by 45-minute incubation. Pellets are resuspended in 2× tris-glycine loading buffer (Novex) containing 5% β-mercaptoethanol and then denatured by 5 minutes boiling prior to electrophoresis on 14% Tris-glycine SDS gels. Using Western transfer techniques, proteins are transferred to nitrocellulose membranes followed by blocking in blocking buffer. Upon overnight incubation with primary antibody (pan-ras Ab-2 from Oncogene Science), an antimouse HRP (horse radish peroxidase) conjugate secondary antibody (Amersham) is employed for detection of the ras protein. Blots are developed using ECL(enhanced chemiluminescence) techniques (Amersham).

[2] = tested on: H61 cells: NIH transformed 3T3 H-ras cells; assay: Clonogenic assay (6 well plates, soft agar); format: cell-based
Protocol: Clonoaenic Assay (6 well lates)
Sometime previous to setting up an actual test:
1. Make up 1.5% Bacto Agar in Milli-Q water and autoclave.
2. Make up 500 mL 2× DMEM-HG without phenol red by combining the following:
1 bottle DMEM base powder (Sigma D-5030)
Adjust pH to 7.1 with HCL; filter sterilize.
1. Set up makeshift water bath (beaker of water with thermometer, on hot plate) in the hood. Keep water temperature between 37° C. to 43° C.
2. […] 1.5% Bacto Agar for approximately 2 minutes on high, or until completely melted. Then let it cool somewhat before using it. (You can keep it from resolidifying by setting the bottle on the hot plate.) […]
3. Bottom Layer (0.6% agar) Top Layer (0.3% agar)
20% calf serum 20% calf serum
40% Bacto Agar (1.5%) 20% Bacto Agar (1.5%)
Depending on the volume of each layer needed, use either 50 mL conical tubes or 200 mL turnip tubes which can be floated in the "water bath".
4. Add 1 mL of bottom layer agar/medium to each well: deliver 1 mL warm agar/medium to a well; then using the tip of the pipet, spread the agar/medium around to completely cover the bottom. Repeat with next well.
5. Allow the plates to set at room temperature for about 5 minutes until the bottom layer solidifies.
6. Label sterile Falcon 2054 (12×75 mm) tubes and add appropriate volume of drug solutions into them.
7. Aliquot 4 AL of DMSO or drug solution per 1 mL of agar/medium to appropriate tubes; then add the agar/medium/cells to each tube. Always add 1 mL more than will actually be needed. Mix up and down in the pipet (gently); then deliver 1 mL to the center of each well. The upper layer is less viscous, so it will generally spread out over the bottom layer unaided. If necessary, rotate the plane of the plate gently to spread the top layer evenly over the bottom layer.
8. Let plates set for 5 or 10 minutes at room temperature to solidify, then put into 5% CO2, 37° C. incubator.
9. On Day 13, add 0.5 mL of INT (tetrazolium 1 mg/mL in Milli-Q H2 O, filter sterilized) and return plates to incubator.

[3] = target: T1, SF9 affinity purified rat farnesyl protein transferase (Rattus norvegicus, UniProt Q02293+Q04631); assay: PFT inhibitory activity (radiolabeled farnesyl pyrophosphate, streptavidin bead assay); format: biochemical
T1 construct: made in house; host or cells: Sf9 insect cells (baculovirus system inferred from b7)
T1 sequence (Q02293 whole entry, one chain of several): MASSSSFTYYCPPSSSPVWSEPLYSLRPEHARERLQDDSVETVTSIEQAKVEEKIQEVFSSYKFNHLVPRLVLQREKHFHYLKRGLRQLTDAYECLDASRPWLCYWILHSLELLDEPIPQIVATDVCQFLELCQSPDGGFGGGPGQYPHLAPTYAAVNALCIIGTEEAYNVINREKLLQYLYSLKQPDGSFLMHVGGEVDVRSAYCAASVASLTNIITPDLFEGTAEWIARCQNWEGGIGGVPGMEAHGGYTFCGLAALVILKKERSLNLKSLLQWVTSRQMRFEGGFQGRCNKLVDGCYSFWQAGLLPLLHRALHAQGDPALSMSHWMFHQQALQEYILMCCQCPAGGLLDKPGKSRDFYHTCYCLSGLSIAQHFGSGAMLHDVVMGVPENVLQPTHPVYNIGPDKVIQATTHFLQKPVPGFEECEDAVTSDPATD
Protocol: The protein:farnesyl transferase (PFT) or farnesyl protein transferase (FPT) inhibitory activity of compounds of the present invention were assayed in HEPES buffer (pH 7.4) containing 5 mM potassium phosphate and 20 μM ZnCl2. The solution also contained 5 mM DTT (dithiothreitol), 5 mM MgCl2, and 0.1% PEG 8000. Assays were performed in 96 well plates (Wallec) and employed solutions composed of varying concentrations of a compound of the present invention in 100% DMSO (dimethylsulfoxide). Upon addition of both substrates, radiolabeled farnesyl pyrophosphate ([1^3 H], specific activity 15-30 Ci/mmol, final concentration 134 nM) and (biotinyl)-Ahe-Thr-Lys-Cys-Val-Ile-Met ([3aS[3a alpha, 4 beta, 6a alpha]-hexahydro-2-oxo-1H-thieno[3,4-d]imidazole-5-pentanoic acid]-[7-aminoheptanoic acid]-Thr-Lys-Cys-Val-Ile-Met) (Ahe is 7-aminoheptanoic acid, Thr is threonine, Lys is lysine, Cys is cysteine, Val is valine, Ile is isoleucine and Met is methionine) (final concentration 0.2 μM), the enzyme reaction was started by addition of SF9 affinity purified rat farnesyl protein transferase. After incubation at 30° C. for 30 minutes, the reaction was terminated by diluting the reaction 2.5-fold with a stop buffer containing 1.5 M magnesium acetate, 0.2 M H3 PO4, 0.5% BSA (bovine serum albumin), and strepavidin beads (Amersham) at a concentration of 1.3 mg/mL. After allowing the plate to settle for 30 minutes at room temperature, radioactivity was quantitated on a microBeta counter (Model 1450, Wallec). The assay was also carried out without 5 mM potassium phosphate.

[4] = HEPES buffer pH 7.4, without 5 mM potassium phosphate, read-out: IC50 (μM) Hepes
[5] = HEPES buffer pH 7.4 containing 5 mM potassium phosphate, read-out: IC50 (μM) 5 mM K3 PO4 -2

Row | IC50 [3, 4] | IC50 [3, 5] | Compound | minimal effective concentration [1] | IC50 ([2]; average obtained by additional tests, read-out: Clonogenic Assay IC50 (μM), number in parentheses) | IC50 ([2]; colonies counted after Day 13, read-out: Clonogenic Assay IC50) | IC50 ([2]; 312 h, colonies counted after Day 13, read-out: Clonogenic Assay IC50)
1 | 0.15 µM | 0.009 µM | CC(CNC(=O)CN(Cc1ccc(OCc2ccccc2)cc1)C(=O)[C@H](Cc1c[nH]cn1)NC(=O)NCc1ccccc1)c1ccccc1 (stereo partly drawn) [Example 26, (S)-N-(4-Benzyloxy-benzyl)-2-(3-benzyl-ureido)-3-(1H-imidazole-4-yl)-N-[(2-phenyl-propylcarbamoyl)-methyl]-propionamide] | – | – | – | –
2 | – | – | CC(CNC(=O)CN(Cc1ccc(Br)cc1)C(=O)[C@H](Cc1c[nH]cn1)NC(=O)OCc1ccccc1)c1ccccc1 (stereo partly drawn) [Example 29, (S)-[1-{(4-Bromo-benzyl)-[(2-phenyl-propylcarbamoyl)-methyl]-carbamoyl}-2-(1H-imidazole-4-yl)-ethyl]-carbamic Acid Benzyl Ester] | 0.1 µM | – | – | > 1 µM
3 | 1.98 µM | 0.034 µM | CC(C)(CNC(=O)CN(Cc1ccccn1)C(=O)[C@H](Cc1c[nH]cn1)NC(=O)OCc1ccccc1)c1ccccc1 [Example 46, (S)-(2-(1H-Imidazole-4-yl)-1-{[(2-methyl-2-phenyl-propylcarbamoyl)-methyl]-pyridin-2-ylmethyl-carbamoyl}-ethyl)-carbamic Acid Benzyl Ester] | 1 µM | – | – | –
4 | 0.5 µM | 0.0029 µM | CC(CNC(=O)CN(Cc1ccc(N(C)C)cc1)C(=O)[C@H](Cc1c[nH]cn1)NC(=O)OCc1ccccc1)c1ccccc1 (stereo partly drawn) [Example 48, (S)-[1-{(4-Dimethylamino-benzyl)-[(2-phenyl-propylcarbamoyl)-methyl]-carbamoyl}-2-(1H-imidazole-4-yl)-ethyl]-carbamic Acid Benzyl Ester] | 0.05 µM | – | – | –
5 | 0.86 µM | 0.014 µM | CC(C(=O)NCC(C)(C)c1ccccc1)N(Cc1ccc(Cl)cc1)C(=O)[C@H](Cc1cnc[nH]1)NC(=O)OCc1ccccc1 (stereo partly drawn) [Example 55, (S)-[1-{(4-Chloro-benzyl)-[1-(2-methyl-2-phenyl-propylcarbamoyl)-ethyl]-carbamoyl}-2-(3H-imidazole-4-yl)-ethyl]-carbamic Acid Benzyl Ester] | 0.05 µM | – | – | –
6 | 0.32 µM | 0.012 µM | Cc1ccc(CN(CC(=O)NCC(C)(C)c2ccccc2)C(=O)[C@H](Cc2c[nH]cn2)NC(=O)OCc2ccccc2)cc1 [Example 56, (S)-(2-(1H-Imidazole-4-yl)-1-{(4-methyl-benzyl)-[(2-methyl-2-phenyl-propylcarbamoyl)-methyl]-carbamoyl}-ethyl)-carbamic Acid Benzyl Ester] | 0.05 µM | – | – | –
7 | 0.38 µM | 0.0052 µM | COc1ccccc1CN(CC(=O)NCC(C)(C)c1ccccc1)C(=O)[C@H](Cc1c[nH]cn1)NC(=O)OCc1ccccc1 [Example 57, (S)-(2-(1H-Imidazole-4-yl)-1-{(2-methoxy-benzyl)-[(2-methyl-2-phenyl-propylcarbamoyl)-methyl]-carbamoyl}-ethyl)-carbamic Acid Benzyl Ester] | – | – | – | –
8 | 0.029 µM | 0.005 µM | CN(Cc1ccccc1)C(=O)N[C@@H](Cc1c[nH]cn1)C(=O)N(CC(=O)NCC(C)(C)c1ccccc1)Cc1ccc(Cl)cc1 [Example 58, (S)-2-(3-Benzyl-3-methyl-ureido)-N-(4-chloro-benzyl)-3-(1H-imidazole-4-yl)-N-[(2-methyl-2-phenyl-propylcarbamoyl)-methyl]-propionamide] | 0.05 µM | – | – | –
9 | 0.52 µM | 0.004 µM | COc1cccc(CN(CC(=O)NCC(C)(C)c2ccccc2)C(=O)[C@H](Cc2c[nH]cn2)NC(=O)OCc2ccccc2)c1 [Example 59, (S)-(2-(1H-Imidazole-4-yl)-1-{(3-methoxy-benzyl)-[(2-methyl-2-phenyl-propylcarbamoyl)-methyl]-carbamoyl}-ethyl)-carbamic Acid Benzyl Ester] | 0.05 µM | – | – | –
10 | 0.14 µM | 0.016 µM | CC(C)(CNC(=O)CN(Cc1ccccc1OCc1ccncc1)C(=O)[C@H](Cc1c[nH]cn1)NC(=O)OCc1ccccc1)c1ccccc1 [Example 60, (S)-(2-(1H-Imidazole-4-yl)-1-{[(2-methyl-2-phenyl-propylcarbamoyl)-methyl]-[2-(pyridin-4-ylmethoxy)-benzyl]-carbamoyl}-ethyl)-carbamic Acid Benzyl Ester] | 0.05 µM | – | – | –
11 | 2.6 µM | 0.029 µM | CC(C)CN(CC(=O)NCC(C)c1ccccc1)C(=O)[C@H](Cc1c[nH]cn1)NC(=O)OCc1ccccc1 (stereo partly drawn) [Example 62, (S)-(2-(1H-Imidazol-4-yl)-1-{isobutyl-[(2-phenyl-propylcarbamoyl)-methyl]-carbamoyl}-ethyl)-carbamic Acid Benzyl Ester] | – | – | – | –

Row | Compound | IC50 [3, 4] | IC50 [3, 5] | minimal effective concentration [1] | IC50 ([2]; average obtained by additional tests, read-out: Clonogenic Assay IC50 (μM), number in parentheses) | IC50 ([2]; colonies counted after Day 13, read-out: Clonogenic Assay IC50) | IC50 ([2]; 312 h, colonies counted after Day 13, read-out: Clonogenic Assay IC50)
12 | O=C(CN(Cc1ccc(OCc2ccccc2)cc1)C(=O)[C@H](Cc1c[nH]cn1)NC(=O)OCc1ccccc1)NCCOCc1ccccc1 [Example 1, (S)-N-[(Phenylmethoxy)carbonyl]-L-histidyl-N-[2-(phenylmethoxy)ethyl]-N. sup.2-[[4-(phenylmethoxy)phenyl]-methyl]alycinamide] | 7.7 µM | 0.26 µM | 1 µM | 14.3 µM | 2.7 µM | –
13 | CC(CNC(=O)CN(Cc1cccc2ccccc12)C(=O)[C@H](Cc1c[nH]cn1)NC(=O)OCc1ccccc1)c1ccccc1 (stereo partly drawn) [Example 37, (S)-(2-(1H-Imidazole-4-yl)-1-{naththalen-1-ylmethyl-[(2-phenyl-propylcarbamoyl)-methyl]-carbamoyl}-ethyl)-carbamic Acid Benzyl Ester] | 0.92 µM | 0.026 µM | ≥ 0.2 µM | – | – | –
14 | CC(C)(CNC(=O)CN(Cc1ccc(OCc2ccccc2)cc1)C(=O)[C@H](Cc1c[nH]cn1)NC(=O)OCc1ccsc1)c1ccccc1 [Example 54, (S)-[1-{(4-Benzyloxy-benzyl)-[(2-methyl-2-henyl-propylcarbamoyl)-methyl]-carbamoyl}-2-(1H-imidazole-4-yl)-ethyl]-carbamic acid thiophen-3-ylmethyl Ester] | 0.2 µM | 0.0012 µM | 0.2 µM | – | – | –
15 | [1-{Cyclohexylmethyl-[(2-phenyl-propylcarbamoyl)-methyl]-carbamoyl}-2-(3H-imidazole-4-yl)-ethyl]-carbamic Acid Benzyl Ester [Example 61] | 0.66 µM | 0.018 µM | 0.01 µM | – | – | –
